According to patent publication US8435987B2, “Pyrazolo-pyridinone and pyrazolo-pyrazinone compounds as P38 modulators and methods of use thereof” (Amgen Inc., priority 2007, dated 2013):
Where two headings read alike, the source gives them in different places.

Columns and labels:
recombinant human p38α = recombinant human p38α (Homo sapiens, UniProt Q16539); test: Purified and activated recombinant human p38α HTRF assay; assay type: biochemical; details: 1 nM p38α, 50 μM ATP, 100 nM GST-ATF2-Avitag, read-out: p3a IC550
Experimental: Purified and Activated Recombinant Human p38α Assay
• Kinase Reaction Buffer: Kinase reaction buffer for p38α HTRF assays consists of 50 mM Tris-pH 7.5, 5 mM MgCl2, 0.1 mg/mL BSA, 100 μM Na3VO4 and 0.5 mM DTT. • HTRF Detection Buffer: HTRF detection buffer contains 100 mM HEPES-pH 7.5, 100 mM NaCl, 0.1% BSA, 0.05% Tween-20, and 10 mM EDTA. • Serial Dilution of Compounds: Compounds were dissolved in 100% DMSO and serially diluted (3 fold, 10 point) in a polypropylene 96-well microtiter plate (drug plate). The final starting concentration of compounds in the p38a enzymatic assays was 1 μM. Columns 6 and 12 (HI controls and LO controls respectively) in the drug plate were reserved as controls and contained only DMSO. • Kinase Reaction: The p38α kinase reactions were carried out in a polypropylene 96-well black round bottom assay plate in total volume of 30 μL kinase reaction buffer. Appropriate concentration of purified and activated enzyme (recombinant human) was mixed with indicated concentration of ATP and 100 nM GST-ATF2-Avitag, in the presence or absence (HI control) of Compound. See table below for actual concentrations. In the absence of substrate, the background was measured as LO control. The reaction was allowed to incubate for 1 hour at RT. • Assay Reagent Concentrations: The final reagent concentrations were 1 nM p38α and 50 μM ATP. […] After 60 minutes incubation at room temperature, the assay plate was read in a Discovery Plate Reader. The wells were excited with coherent 320 nm light and the ratio of delayed ([…] post excitation) emissions at […] (native europium fluorescence) and 665 nm (europium fluorescence transferred to allophycocyanin—an index of substrate phosphorylation) was determined (Park et al, 1999). • Data Analysis: The proportion of substrate phosphorylated in the kinase reaction in the presence of compound compared with that phosphorylated in the presence of DMSO vehicle alone (HI control) was calculated using the formula: % control (POC)=(compound−average LO)/(average HI−average LO)*100. Data (consisting of POC and inhibitor concentration in μM) was fitted to a 4-parameter equation (y=A+((B−A)/(1+((x/C)AD))), where A is the minimum y (POC) value, B is the maximum y (POC), C is the x (compound concentration) at the point of inflection and D is the slope factor, using a Levenburg-Marquardt non-linear regression algorithm.
The inhibition constant (Ki) of the inhibitor was estimated from the IC50 (compound concentration at the point of inflection C) using the Cheng-Prussof equation: Ki=IC50/(1+S/Km), where S is the ATP substrate concentration, and Km is the Michaelis constant for ATP as determined experimentally. All results were expressed as the mean± the standard error of the mean. Data acquisition and non-linear regression algorithms were performed using Activity Base v5.2 and XL-fit software v4.1 respectively. All data was archived using Activity Base v5.2 software.

[1] = system: TNF-α secretion by LPS-treated THP1 cells; test: Lipopolysaccharide-activated THP1 cell TNF production assay; assay type: cell-based; details: Homo sapiens, THP-1, 3 hours, read-out: IC50 in the THP-1 cellular TNF production assay
Experimental: Lipopolysaccharide-Activated THP1 Cell TNF Production Assay
THP1 cells were resuspended in fresh THP1 media (RPMI 1640, 10% heat-inactivated FBS, 1×PGS, 1×NEAA, plus 30 μM βME) at a concentration of 1.5×10^6 cells per mL. One hundred microliters of cells per well were plated in a polystyrene 96-well tissue culture plate. 1.5 micrograms per mL of bacterial LPS was prepared in THP1 media and transferred to the first 11 columns of a 96-well polypropylene plate. Column 12 contained only THP1 media for the LO control. Compounds were dissolved in 100% DMSO and serially diluted 3 fold in a polypropylene 96-well microtiter plate (drug plate). Columns 6 and 12 were reserved as controls (HI controls and LO controls respectively) and contained only DMSO. 10 μL of LPS followed by one microliter of inhibitor compound from the drug plate was transferred to the cell plate. The treated cells were induced to synthesize and secrete TNF-α in a 37° C. humidified incubator with 5% CO2 for 3 hours. Fifty microliters of conditioned media was transferred to a 96-well MULTI-ARRAY™ 96-well small spot plate—custom coated with MAB610 containing 100 μL of 2× Read Buffer P supplemented with 0.34 nM AF210NA polyclonal Ab labeled with ruthenium (MSD-Sulfo-TAG™—NHS ester). After an overnight incubation at room temperature with shaking, the reaction was read on the Sector Imager™ 6000. […] The amount of secreted TNF-α in the presence of AMG compounds compared with that in the presence of DMSO vehicle alone (HI control) was calculated using the formula: % control (POC)=(cpd−average LO)/(average HI−averageLO)*100. Data (consisting of POC and inhibitor concentration in μM) was fitted to a 4-parameter equation (y=A+((B−A)/(1+((x/C)^D))), where A is the minimum y (POC) value, B is the maximum y (POC), C is the x (cpd concentration) at the point of inflection and D is the slope factor) using a Levenburg-Marquardt non-linear regression algorithm.

[2] = system: secreted IL-8 by whole blood activated with TNF-α; test: Inhibition of TNF-α induced IL-8 in 50% human whole blood; assay type: cell-based
Experimental: Inhibition of TNF-α Induced IL-8 in 50% Human Whole Blood
Test compounds were evaluated in vitro for the ability to inhibit the production of secreted IL-8 by whole blood activated with TNF-α. Fresh human whole blood was obtained from healthy, non-medicated volunteers in sodium heparin tubes.
Compound Dilution—Assay Procedure
Test compounds are serially diluted 1:3 in DMSO and then diluted 1:250 into R10 (RPMI 1640, 10% human serum AB, 1× pen/strep/glutamine) to the 4× working concentration to be used in the assay. 100 ul heparinized whole blood is plated into wells of 96 well flat bottom plates. 50 ul of either 4× compound or DMSO control (Final DMSO concentration is 0.1%) are added to the appropriate wells. Plates are incubated for 1 hour at 37 degrees Celsius. 50 ul of 4× TNF-α (4 nM TNF-α, for a final concentration of 1 nM) or control (media alone) is added to the appropriate wells (Total volume=200 ul). Plates are incubated overnight (16-18 hours). 100 ul of supernatant is collected and stored in 96-well round bottom polypropylene plates at −80 degrees Celsius or assayed immediately for IL-8.
Cytokines are measured on antibody (Ab) sandwich ECL based 96-well detection plates. 20 ul of supernatant are added to plate and plate is sealed and shaken at RT for 1 hour. 130 ul of detection Ab cocktail is added and plates are sealed and shaken for 1 hour in the dark at RT. Plates are read on MSD Sector HTS instrument. Data are analyzed and IC50 values generated using Activity Base and Xl-fit programs.

[3] = Homo sapiens, read-out: IC50, TNF-α induced IL-8 in 50% human whole blood
[4] = 50% human whole blood, TNF-α (1 nM final) induced IL-8, 16-18 hours, read-out: WB TNF/IL8 IC50

Sequence of recombinant human p38α (Q16539 whole entry): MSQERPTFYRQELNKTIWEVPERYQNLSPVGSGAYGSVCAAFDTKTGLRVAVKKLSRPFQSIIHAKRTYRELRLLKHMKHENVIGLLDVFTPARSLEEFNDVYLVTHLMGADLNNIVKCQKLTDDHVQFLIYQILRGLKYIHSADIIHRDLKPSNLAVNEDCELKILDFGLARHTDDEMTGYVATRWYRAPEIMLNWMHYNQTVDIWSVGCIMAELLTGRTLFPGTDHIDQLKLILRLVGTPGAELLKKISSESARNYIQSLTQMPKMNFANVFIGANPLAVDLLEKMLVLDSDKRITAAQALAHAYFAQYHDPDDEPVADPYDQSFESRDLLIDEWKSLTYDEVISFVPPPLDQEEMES

Question: How did the IC50 (recombinant human p38α) turn out when `CNc1noc2c(-c3nc4cnn(-c5ccc(F)cc5F)c4n(C)c3=O)c(C)ccc12` [Example 2, 1-(2,4-difluorophenyl)-7-methyl-5-(6-methyl-3-(methylamino)benzo[d]isoxazol-7-yl)-1H-pyrazolo[4,3-b]pyrazin-6(7H)-one] was run?
Answer: Its IC50 is 28.5 nM.

Question: What about the IC50 [1] of the same molecule?
Answer: Its IC50 is at most 100 nM.

Question: And the IC50 [2, 3]?
Answer: The IC50 was at most 100 nM.

Question: `Cc1ccc2c(NC3CC3)noc2c1-c1nc2cnn(-c3c(F)cccc3F)c2n(C)c1=O` [Example 9, 5-(3-(cyclopropylamino)-6-methyl-1,2-benzisoxazol-7-yl)-1-(2,6-difluorophenyl)-7-methyl-1,7-dihydro-6H-pyrazolo[3,4-b]pyrazin-6-one] was tested. Which IC50 [2, 4] did it give?
Answer: Its IC50 is 8 nM.

Question: How did the IC50 [2, 4] turn out when `Cc1ccc2c(NC3CC3)noc2c1-c1nc2cnn(-c3ccc(F)cc3F)c2n(C)c1=O` [Example 10, 5-(3-(cyclopropylamino)-6-methyl-1,2-benzisoxazol-7-yl)-1-(2,4-difluorophenyl)-7-methyl-1,7-dihydro-6H-pyrazolo[3,4-b]pyrazin-6-one] was run?
Answer: Its IC50 is 8.9 nM.

Question: `Cc1ccc2c(NC3CC3)noc2c1-c1cc2cnn(-c3ccc(F)cc3F)c2n(C)c1=O` [Example 8, 5-(3-(cyclopropylamino)-6-methyl-1,2-benzisoxazol-7-yl)-1-(2,4-difluorophenyl)-7-methyl-1,7-dihydro-6H-pyrazolo[3,4-b]pyridin-6-one] was tested. Which IC50 (recombinant human p38α) did it give?
Answer: Its IC50 is 4.4 nM.

Question: And the IC50 [1]?
Answer: Its IC50 is at most 100 nM.

Question: What about the IC50 [2, 4] of the same molecule?
Answer: Its IC50 is 1.8 nM.

Question: And the IC50 [2, 3]?
Answer: Its IC50 is at most 100 nM.

Question: What does the source list for `Cc1ccc2c(NC3CC3)noc2c1-c1cc2cnn(-c3cc(F)ccc3F)c2n(C)c1=O` [Example 6, 5-(3-(cyclopropylamino)-6-methyl-1,2-benzisoxazol-7-yl)-1-(2,5-difluorophenyl)-7-methyl-1,7-dihydro-6H-pyrazolo[3,4-b]pyridin-6-one]?
Answer: IC50 (recombinant human p38α): 8.9 nM; IC50 [1]: ≤ 100 nM; IC50 [2, 4]: 1.6 nM; IC50 [2, 3]: ≤ 100 nM

Question: For `CCn1c(=O)c(-c2c(C)ccc3c(NC4CC4)noc23)cc2cnn(-c3ccccc3F)c21` [Example 7, 5-(3-(cyclopropylamino)-6-methyl-1,2-benzisoxazol-7-yl)-7-ethyl-1-(2-fluorophenyl)-1,7-dihydro-6H-pyrazolo[3,4-b]pyridin-6-one], which IC50 (recombinant human p38α) is on record?
Answer: The IC50 was 2 nM.

Question: And the IC50 [1]?
Answer: The IC50 was at most 100 nM.

Question: And the IC50 [2, 4]?
Answer: Its IC50 is 1.3 nM.

Question: What about the IC50 [2, 3] of the same molecule?
Answer: Its IC50 is at most 100 nM.
